From patent publication US6548540B2, “Method of treating cancer using dithiocarbamate derivatives” (Charlotte-Mecklenburg Hospital Authority, priority 1998, dated 2003)

Test system: M1619 melanoma cells
Assay: Intracellular copper by plasma emission spectroscopy
Type: cell-based, human
Details: 6 hours, ng copper/ml of hydrolysate
Experimental: Finally, a number of dithiocarbamate effects on cells have been attributed to increasing the intracellular levels of copper ions. To further probe the role of copper in mediating cytotoxicity from disulfiram, cells were cultured with or without addition of the impermeate Cu^2+ chelator bathocuprioinedisulfonic acid (BCPS, 100 μM) added to medium to sequester Cu^2+ in the extracellular compartment. Cells were also treated 12 hours with various concentration of disulfiram (0.625 to 5.0 μM) and intracellular copper levels were measured as outlined below.
Cells were cultured in 12-well plastic tissue culture plates at an initial plating density of 50,000 cells/well, grown to confluence and treated with disulfiram or vehicle DMSO as outlined above. Media was removed and cells were washed twice with DPBS. Cells were then scraped into 1.0 ml of 3N HCl/10.0% trichloroacetic acid and hydrolyzed at 70° C. for 16 hours. The hydrolysate was centrifuged at 600 gm for 10 minutes to remove debris and copper was measured in the supernatant using inductively coupled plasma emission spectroscopy (Model P30, Perkin Elmer, Norwalk, Conn.) at wavelengths of […] and 224.700 nm. To minimize metal contamination, plasticware rather than glassware was used in these experiments, and double-distilled, deionized water was used for all aqueous media. Results are reported as ng copper/ml of hydrolysate.
M1619 melanoma cells were cultured at a density of 50,000 cells/well in 24 well plates in the presence of 10% FBS and grown to confluence. Disulfiram or DMSO vehicle (5 μl/ml) was added at the concentrations indicated, and cells were incubated an additional 6 hours. Supernatant was removed from cells and monolayers were washed twice with DPBS. Cells were scraped into 1.0 ml 3 N HCL/10% trichloroacetic acid and hydrolyzed at 70° C. for 16 hours. After centrifugation at 600 g×10 min, copper was measured using inductively coupled plasma emission spectroscopy at wavelengths of 324.754 and 224.700 nm. Replicates of four are reported. To minimize metal contamination, plastic ware rather than glass was used in experiments, and double-distilled, deionized water was used for all aqueous media. ^Ap<0.01 compared to DMSO control; ^Bp<0.001 compared to DMSO control.

CCN(CC)C(=S)SSC(=S)N(CC)CC [Disulfiram, tetraethylthiuram disulfide]
Intracellular Copper (FBS + 0.625 μM DS): 76 ± 11 ng/mL | Intracellular Copper (FBS + 1.25 μM DS): 102 ± 5^A ng/ml | Intracellular Copper (FBS + 2.5 μM DS): 160 ± 17^A ng/ml | Intracellular Copper (FBS + 5.0 μM DS): 195 ± 3^B ng/ml
